{
  "source": "patent US9375436B2",
  "about": "“Androgen treatment in females” (priority 2004, dated 2016)",
  "type_in_all_cases": "in vivo, human",
  "key": {"[1]": {"test_system": "patients with evidence of decreased ovarian reserve", "assay": "IVF cycles before and after DHEA treatment (Example 2)", "description": "Cumulative embryo score is determined by scoring day 3 embryos and multiplying the number of cells in the embryo by the embryo grade. Embryo grade is a judgment of the embryologist on embryo quality from 1 to 5. Most good embryos are scored 4, with 5 reserved for exceptional embryos. The grade is based on the uniformity of the cells, the color and consistency of the cytoplasm, and the amount of fragmentation. Normal embryos are less than 5% fragmented. A person with three eight cell embryos each with a grade of four would have a cumulative embryos score of 96, the product of 3×8×4.\nIn another study, thirty (30) patients with evidence of decreased ovarian reserve were given supplemental DHEA 25 mg three times a day, for a total of 75 mg per day, for an average of about 4 months before beginning ovulation induction for IVF. Twelve patients contributed data from cycles both pre-DHEA and post-DHEA, eleven patients contributed data from cycles only pre-DHEA, and seven patients contributed data from cycles only post-DHEA. Patients' response to ovulation induction before DHEA treatment was compared to patients' response to ovulation induction after DHEA treatment with regard to peak estradiol, oocyte production, and embryos transferred and embryo quality."}, "[2]": {"test_system": "women with DOR", "assay": "Matched case control study of embryo aneuploidy by preimplantation genetic screening (Example 11)", "description": "In a 1:2, matched case control study, 22 consecutive women with DOR, supplemented with DHEA, underwent preimplantation genetic screening (PGS) of embryos during in vitro fertilization (IVF) cycles. Each was matched by patient age and time period of IVF with two control IVF cycles without DHEA supplementation (n=44). PGS was performed for chromosomes X, Y, 13, 16, 18, 21 and 22, and involved determination of numbers and percentages of aneuploid embryos.\nWe retrieved from our center's computerized research data bank a total of 22 consecutive DOR patients who underwent IVF/PGS while on DHEA supplementation. Only first IVF cycles were analyzed. These cycles were matched with the two control cycles not on DHEA supplementation, based on patient age and year of treatment (44 controls).\nNormal age-specific hormone levels were defined by 95% confidence intervals at all ages, as previously reported. Since patients with DOR were, thus, uniformly diagnosed before IVF cycle protocols were determined, they were all supplemented with DHEA, and stimulation adjustments were made.\nDuring the study period all DOR patients at our center routinely received DHEA supplementation. Those not receiving DHEA, therefore, by definition, had age-appropriate ovarian reserve, confirmed by normal anti-Müllerian hormone (AMH), follicle stimulating hormone (FSH) baseline levels and estradiol. Patients receiving DHEA supplementation were prescribed 25 mg of micronized, pharmaceutical grade DHEA, T.I.D, for at least four weeks prior to IVF cycle start. Short-term supplementation was defined as 4 to 12 weeks of DHEA prior to IVF and PGS; supplementation beyond that was considered long-term supplementation.\nPatients with premature DOR, or if over 40 years of age, in first treatment cycles universally receive a so-called microdose gonadotropin releasing hormone agonist (GnRH-a) ovarian stimulation protocol, characterized by leuprolide acetate (50 μg/0.1 mL, b.i.d.; Lupron®, Abbot Pharmaceuticals, North Chicago, Ill.) and ovarian stimulation with follicle stimulating hormone (FSH, 300 IU-450 IU daily) and human menopausal gonadotropins (hMG, 150 IU). If under age 40 with normal ovarian reserve patients receive down regulation with full dose GnRH-a (1.0 mg/0.1 mL) and ovarian stimulation with up to 300 IU of gonadotropins, usually half as FSH and half as hMG. Higher luteinizing hormone (LH) contributions to ovarian stimulation, if anything, reduce embryo aneuploidy. The small difference in ovarian stimulation protocols between women with DOR and controls, therefore, potentially biases study outcome towards lower aneuploidy rates in the control population, which received a proportionally higher LH contributions to ovarian stimulation.\nPGS was performed, utilizing fluorescence in situ hybridization (FISH) in routine fashion, utilizing probes for seven chromosomes (X, Y, 13, 16, 18, 21 and 22) on day three after fertilization, when embryos reached six to eight cell stages. This restricted chromosome panel is currently routinely utilized for PGS.\nA general linear model was constructed to assess DHEA effects on percent aneuploidy after adjustment for age, indications for PGS, stimulation protocol and total gonadotropin dosage utilized. The latter adjustment was made as a surrogate for potential physician biases in how individual patients were stimulated, and potential effects such stimulation biases may have on ploidy."}, "[3]": {"test_system": "women waiting to go into an IVF cycle", "assay": "Spontaneous conceptions in women on DHEA waiting to go into IVF", "description": "Additionally, with DHEA treatment, there may be an unexpectedly large number of spontaneous conceptions in women waiting to go into an IVF cycle. DHEA treatment includes administering a dose of between about 50 mg/day and about 100 mg/day, preferably between about 60 mg/day and about 80 mg/day, and in one study about 75 mg/day to a human. Particularly, the DHEA treatment may be administered to a premenopausal person with diminished ovarian function. DHEA may have an effect after about 4 consecutive weeks. However, DHEA has a more significant effect after about 8 weeks or about 2 months of administration, but its effect may continue to increase to about four months, and further may continue past four months of use. Specifically, DHEA treatment has a statistically significant effect after about at least 16 weeks or about at least 4 months of administration.\nThe DHEA treatment may be at least about 2 weeks before spontaneous conception occurs. In the population of women who are waiting to go into IVF, the spontaneous pregnancy rate is a fraction of about 1% per month. However, in the population of women who have been on DHEA treatment, there were 13 spontaneous pregnancies out of 60 women. As such, DHEA treatment increases spontaneous pregnancies in one study at least about 21 fold. […]"}, "[4]": {"settings": "Post DHEA, 19 cycles, 16.1 ± 2.4 weeks of DHEA 75 mg per day"}, "[5]": {"settings": "DHEA patients n=22, PGS by FISH, seven chromosomes"}},
  "note": "Where “and” joins values, the source holds several entries; their conditions need not be identical. Equal entries are not always repeated.",
  "data": [
    {"smiles": "C[C@]12CC[C@H](O)CC1=CC[C@@H]1[C@@H]2CC[C@]2(C)C(=O)CC[C@@H]12", "note": "[DHEA, Dehydroepiandrosterone]", "values": [
      {"measurement": "patients with continuing pregnancies", "setting": "[1]; 5 of 45 patients", "result": 11, "unit": "%"},
      {"measurement": "patients using DHEA who have conceived", "setting": "[1]; 7 of 45 patients", "result": 16, "unit": "%"},
      {"measurement": "mean increase in the number of fertilized oocytes (paired comparisons)", "setting": "[1]; 12 patients", "result": "1.42±0.63"},
      {"measurement": "Average Day 3 embryo cell count", "setting": "[1]; Post DHEA, 19 cycles", "result": "4.5 ± 0.5"},
      {"measurement": "Average Day 3 embryo grade", "setting": "[1]; Post DHEA, 19 cycles", "result": "2.8 ± 0.3"},
      {"measurement": "Fertilized eggs", "setting": "[1]; Post DHEA, 19 cycles", "result": "4.6 ± 0.8"},
      {"measurement": "Number of Day 3 embryos", "setting": "[1]; Post DHEA, 19 cycles", "result": "3.2 ± 0.6"},
      {"measurement": "Oocytes", "setting": "[1]; Post DHEA, 19 cycles", "result": "5.8 ± 1.0"},
      {"measurement": "Peak Estradiol", "setting": "[1]; Post DHEA, 19 cycles", "result": "1192 ± 904"},
      {"measurement": "Transferred embryos", "setting": "[1]; Post DHEA, 19 cycles", "result": "2.6 ± 0.4"},
      {"measurement": "Cancellation", "setting": "[1]; [4]", "result": 5, "unit": "%"},
      {"measurement": "Cancellation (cycles cancelled / cycles)", "setting": "[1]; [4]", "result": "1 of 19 and 1/19"},
      {"measurement": "Positive hCG (per transfer cycle)", "setting": "[1]; Post DHEA, cycles after an average of 4 months of DHEA treatment", "result": "4/18"},
      {"measurement": "increase in cumulative embryo score", "setting": "[1]; after versus prior to DHEA use", "result": "about 64"},
      {"measurement": "improved overall embryo score, model adjusted for oocyte number", "setting": "[1]; post versus pre DHEA", "result": 32.8},
      {"measurement": "increased fertilization, model adjusted for oocyte number", "setting": "[1]; post versus pre DHEA", "result": 1.93, "unit": "fertilized oocytes"},
      {"measurement": "increased numbers of day-three embryos, model adjusted for oocyte number", "setting": "[1]; post versus pre DHEA", "result": 1.36, "unit": "embryos"},
      {"measurement": "Embryo Grades (mean ± SD)", "setting": "[2]; DHEA patients n=22", "result": "3.4±0.4"},
      {"measurement": "Embryos Cryopreserved (n, mean ± SD)", "setting": "[2]; DHEA patients n=22", "result": "0.7±1.6"},
      {"measurement": "Embryos Transferred (n, mean ± SD)", "setting": "[2]; DHEA patients n=22", "result": "1.4±0.9"},
      {"measurement": "Embryos Undergoing PGS (n, mean ± SD)", "setting": "[2]; DHEA patients n=22", "result": "7.3±3.9"},
      {"measurement": "Oocytes retrieved (n, mean ± SD)", "setting": "[2]; DHEA patients n=22, 25 mg T.I.D. at least four weeks", "result": "9.6±6.2"},
      {"measurement": "aneuploid embryos (absolute number)", "setting": "[2]; [5]", "result": "2.8±2.5"},
      {"measurement": "percentages of aneuploidy", "setting": "[2]; [5]", "result": "38.2±24.4"},
      {"measurement": "reduction in aneuploidy", "setting": "[2]; short term supplementation (4-12 weeks), 95% CI -2.871-46.031", "result": 21.6, "unit": "%"},
      {"measurement": "increase of spontaneous pregnancies", "setting": "[3]; versus fraction of about 1% per month in women waiting for IVF", "result": "at least 21 fold"},
      {"measurement": "spontaneous pregnancies out of 60 women", "setting": "[3]; women on DHEA treatment", "result": 13}
    ]}
  ]
}
